Data from patent US10238689B2, “Methods for combating bacterial infections by killing persister cells with mitomycin C and/or cisplatin” (THE PENN STATE RESEARCH FOUNDATION, priority 2015, dated 2019).
In brackets after ≈: the same amount, converted by molar mass. Entries after “also recorded” stand apart in the source; their conditions may differ.

What was measured:
pCA24N DNA = test: In vitro crosslinking of DNA and denaturing agarose gel electrophoresis; assay type: biochemical; details: cisplatin 200 μM 1.5 h and 3.5 h; MMC 500 μg/mL; denaturing gel
Method: FIG. 10 provides data obtained from analysis of in vitro crosslinking of DNA with cisplatin and denaturing agarose gel electrophoresis. To produce the results shown in FIG. 10, pCA24N DNA (4518 bp) was in vitro crosslinked with cisplatin following a standard protocol. In brief, 2.2 μg of pCA24N DNA was linearized by HindIII digestion and cleaned using Wizard-SV gel and PCR clean-up system (Promega, Madison, Wis., USA). Linearized pCA24N was then treated with 200 μM (60 μg/mL) of cisplatin (Sigma-Aldrich, St. Louis, Mo., USA) for 1.5 h and 3.5 h at 37° C. The same amount of pCA24N DNA was also treated with an equivalent amount of 0.1M NaClO4 (solvent control for cisplatin) for 3.5 h at 37° C. Mitomycin C (MMC) was used as a positive control to compare types of crosslinking between cisplatin and MMC. For MMC, the same amount (2.2 μg) of pCA24N DNA was crosslinked essentially as in Example 1. In brief, linearized pCA24N DNA was treated with 500 μg/mL (1.5 mM) MMC or without MMC in 0.2 mM EDTA, 50 mM NaCl, and 5 mM Tris (pH 7.6) with Na2S2O4 added six times at 10 min intervals to reach a final concentration of 2.25 mM (1.5×molarity of MMC). The crosslinking reaction with MMC was performed anaerobically on ice and the reaction was stopped by exposure to air. […]

[1] = system: E. coli K-12 BW25113 biofilm; test: Biofilm dispersal assay (crystal violet); assay type: cell-based, Escherichia coli; details: 24 h static growth then 24 h with MMC, 30° C., M9-glucose
Method: Cultures were incubated for an additional 24 h with or without MMC. Biofilm levels were assayed using crystal violet staining as described previously (Lee, et al., Appl. Environ. Microbiol. 75, 1703 (2009)). Cell growth (turbidity at 620 nm) was used to normalize the total biofilm formation (absorbance at 540 nm). Data points were averaged from 15 replicate wells using at least two independent cultures.

P. aeruginosa PA14 [2] = test: Persister cell assay of pathogens (stationary phase), cisplatin vs MMC; assay type: cell-based, Pseudomonas aeruginosa; details: M9-glucose, 3 h
Method: (§1) For the persister cell assay of the pathogens, stationary-phase cells were used. Cultures of EHEC, P. aeruginosa, and S. aureus were prepared by a 1:1000 dilution of overnight grown cultures (LB medium for EHEC and P. aeruginosa, TSB for S. aureus) into fresh buffered LB medium for EHEC, M9-glucose for P. aeruginosa, and TSB for S. aureus and re-growing the cells to a turbidity of 3 to 4 at 600 nm for EHEC and S. aureus and growing for 24 h for P. aeruginosa. […]
NaClO4 (0.1M) was used as a solvent control. The viability of the cells was determined before and after cisplatin and MMC treatment. At least two independent cultures of each strain were used in each experiment.

P. aeruginosa PA14 [3] = test: Minimum inhibitory concentration (MIC) assay; assay type: cell-based, Pseudomonas aeruginosa
Method: Minimum inhibitory concentration (MIC) assay. To determine the MICs of cisplatin for E. coli K-12, enterohemorrhagic E. coli (EHEC), S. aureus, and P. aeruginosa (PAO1 and PA14), freshly inoculated cultures (at least two independent cultures) in buffered LB (TSB for S. aureus) were incubated for 16 h with varying concentrations of cisplatin, and growth inhibition was assayed by the lack of turbidity.

[4] = system: P. aeruginosa PA14 and ΔtpbA biofilm cells; test: Persister cell killing assay (biofilm cells); assay type: cell-based, Pseudomonas aeruginosa; details: 3 h, 5×MIC (cisplatin 250 μg/mL, MMC 10 μg/mL), limit of detection 100 cells/mL
Method: Persister cell killing assay (biofilm cells). […] Biofilm formation was assayed using the crystal violet staining method (Fletcher 1977) and was normalized by planktonic cell growth (turbidity at 620 nm) to account for any differences in growth rates. Data were averaged from 6 replicate wells using at least two independent cultures. […] NaClO4 (0.1M) was used as a solvent control for cisplatin. Cell viability in biofilms was assayed before and after the MMC and cisplatin treatments by removing supernatants (planktonic cells) from each well carefully, resuspending the biofilm in normal saline, and sonicating twice at 3W for 10 sec (Ueda and Wood 2009) to break apart the biofilm cells (due to the aggregative nature of P. aeruginosa ΔtpbA cells). Suspensions from multiple wells were combined to get an averaged sample. Then the cell suspensions were serially diluted in normal saline for a drop assay to check cell viability.

[5] = system: S. aureus clinical isolates 5B and 50F; test: Persister cell assay, clinical isolates; assay type: cell-based, Staphylococcus aureus; details: for survival: stationary phase, 500 μg/mL of cisplatin
Method: as §1

E. coli K-12 cells = test: Test of DNA crosslinking compounds for antimicrobial activity; assay type: cell-based, Escherichia coli; details: 100 μg/mL
Method: Stocks of cisplatin (2 mg/mL, Sigma-Aldrich, St. Louis, Mo., USA) were prepared in 0.1M NaClO4 and MMC (0.5 mg/mL, Fisher Scientific, Pittsburgh, Pa., USA) was prepared in water. Stocks of busulfan (2 mg/mL, Cayman Chemical, Ann Arbor, Mich., USA), melphalan (2 mg/mL, Cayman Chemical), dynemicin A (5 mg/mL, AdooQ, Irvine, Calif., USA), and tirapazamine (0.5 mg/mL, Sigma-Aldrich) were prepared in dimethylsulfoxide, the stock of cyclophosphamide (0.5 mg/mL, Cayman Chemical) was prepared in water, and the stock of carmustine (214 mg/mL, Enzo Life Sciences, Farmingdale, N.Y., USA) was prepared in ethanol.
In this Example we tested seven other DNA crosslinking compounds: busulfan (100 μg/mL), carmustine (100 μg/mL) cisplatin (100 μg/mL), cyclophosphamide (100 μg/mL), dynemicin A (200 μg/mL), melphalan (100 μg/mL), and tirapazamine (10 μg/mL).

[6] = 1×MIC (cisplatin 50 μg/mL, MMC 2 μg/mL)
[7] = 5×MIC (cisplatin 250 μg/mL, MMC 10 μg/mL)

Row | SMILES | type of DNA crosslinking in vitro (pCA24N DNA) | biofilm dispersal [1] | survival (P. aeruginosa PA14 [2]; [6]) | survival (P. aeruginosa PA14 [2]; [7]) | MIC (1×MIC) (P. aeruginosa PA14 [3]) [µg/mL] | cell viability of biofilm cells ([4]; PA14 biofilm) | cell viability of biofilm cells ([4]; ΔtpbA biofilm) | cell viability after treatment ([5]; both clinical isolates, 800 μg/mL) | survival ([5]; isolate 5B) [%] | survival ([5]; isolate 50F) [%] | antimicrobial activity (E. coli K-12 cells)
1 | CO[C@@]12[C@H](COC(N)=O)C3=C(C(=O)C(C)=C(N)C3=O)N1C[C@@H]1N[C@@H]12 [MMC, mitomycin C] | crosslinks inter-strand DNA | does not cause biofilm dispersal; also recorded: did not cause biofilm dispersal | 5±2% | 0.0056±0.0004% | 2 (≈ 5.98 µM) | could not eradicate | could not eradicate |  |  |  | 
2 | N.N.[Cl][Pt][Cl] [cisplatin, cis-diamminodichloroplatinum(II)] | crosslinks the same strand of DNA; also recorded: crosslinks intra-strand DNA |  | completely eradicated | eradicated | 50 | completely eradicated | completely eradicated | completely eradicate | 2.5±3.5 | 10±4 | exhibited antimicrobial activity
